Laboratory results reported in patent US20190022152A1, “MICROBIOME RESPONSE TO AGENTS” (Yeda Research and Development Co., Ltd., priority 2014, published 2019).

Tests used:
[1] = cited from earlier work
[2] = tested on: mice; assay: Oral glucose tolerance test in mice drinking non-caloric artificial sweeteners (NAS); type: in vivo
From the text: (§1) C57Bl/6 WT adult male mice were randomly assigned (without blinding) to treatment groups and were given commercial artificial sweeteners (saccharin-, sucralose- or aspartame-based) or pure saccharin (Sigma Aldrich) in drinking water and fed a high-fat (HFD D12492, 60% Kcal from fat, Research Diets) or standard polysaccharide normal chow (NC) diet (Harlan-Teklad). Compared groups were always fed from the same batch of diet. For antibiotic treatment, mice were given a combination of ciprofloxacin (0.2 gl^−1) and metronidazole ([…]) or vancomycin (0.5 gl^−1) in their drinking water. All antibiotics were obtained from Sigma Aldrich. Adult male outbred Swiss-Webster mice (a widely used mouse strain in germ-free experiments) served as recipients for fecal transplants and were housed in sterile isolators (Park Biosciences). For fecal transplantation experiments, 200 mg of stool (from mouse pellets or human swabs) was resuspended in 5 ml of PBS under anaerobic conditions, vortexed for 3 minutes and allowed to settle by gravity for 2 minutes. Recipient mice were gavaged with 200 μl of the supernatant and maintained on standard NC diet and water throughout the experiment.
The following commercially available NAS were dissolved in mice drinking water to obtain a 10% solution: Sucrazit (5% saccharin, 95% glucose), Sucralite (5% Sucralose), Sweet'n Low Gold (4% Aspartame). 10% glucose (J.T. Baker) and 10% sucrose (Sigma Aldrich) solutions were used for controls. […] For experiments conducted with pure saccharin (Sigma Aldrich) a 0.1 mgml^−1 solution was used in order to meet with FDA defined ADI for saccharin in humans (5 mgkg^−1), according to the following calculation:
Mice were fasted for 6 hours during the light phase, with free access to water. In all groups of mice where the drinking regime was other than water, it was substituted for water for the period of the fasting and glucose or insulin tolerance test. Blood from the tail vein was used to measure glucose levels using a glucometer (Bayer) immediately before and 15, 30, 60, 90 and 120 minutes after oral feeding with 40 mg glucose (J.T. Baker) or intra-peritoneal injection with 0.1 Ukg^−1 Insulin (Biological Industries). Plasma fasting insulin levels were measured in sera collected immediately before the start of GTT using ELISA (Ultra Sensitive Mouse Insulin ELISA Kit, Crystal Chem).

[3] = tested on: microbiota of germ-free recipient mice
From the text: as §1
pooled fecal matter from naïve adult WT C57Bl/6 male mice was resuspended in 5 ml PBS in an anaerobic chamber (Coy Laboratory Products, 75% N2, 20% CO2, 5% H2), vortexed for 3 minutes and allowed to settle by gravity for 2 minutes. […] were added to a tube containing Chopped Meat Carbohydrate Broth, PR II (BD) and […] of a 5 mgml-1 saccharin solution or an equal volume of PBS. Every 3 days, 500 ml of culture were diluted to fresh medium containing saccharin or PBS. After 9 days, cultures were used for inoculation of germ-free mice.
Frozen fecal samples were processed for DNA isolation using the MoBio PowerSoil kit according to the manufacturer's instructions. 1 ng of the purified fecal DNA was used for PCR amplification and sequencing of the bacterial 16S rRNA gene. ˜365 bp Amplicons spanning the variable region 2 (V2) of the 16S rRNA gene were generated by using the following barcoded primers: Fwd 5′-[…]-3′ (SEQ ID NO: 3), Rev 5′-[…]-3′ (SEQ ID NO: 4). […] Reads were then processed using the QIIME (Quantitative Insights Into Microbial Ecology) analysis pipeline as described, version 1.8. Paired-end joined sequences were grouped into operational taxonomic units (OTUs) using the UCLUST algorithm and the greengenes database. Sequences with distance-based similarity of 97% or greater over median sequence length of 353 bp were assigned to the same OTU. Samples were grouped according to the treatment. Analysis was performed at each taxonomical level (Phylum-genus+OTU level) separately. For each taxon, G test was performed between the different groups. P-values were FDR corrected for multiple hypothesis testing.

[4] = GF recipients of D7 vs D1 microbiome from human responder
[5] = GF recipients of saccharin-enriched culture, day 6, level 2

Q: With `O=C1NS(=O)(=O)c2ccccc21` [saccharin] as the molecule, how does the “FDA defined ADI (acceptable daily intake) in humans” value ([1]; humans) read?
A: The value was 5 mgkg^−1.

Q: What about the reported toxic dose ([1]; literature values) of the same molecule?
A: Its reported toxic dose is 6.3 gkg^−1.

Q: What about the “glucose tolerance (OGTT)” value ([2]; C57Bl/6 mice on HFD, 0.1 mgml^−1 pure saccharin in drinking water vs water, from 5 weeks, p<0.0002) of the same molecule?
A: The value was “impaired glucose tolerance”.

Q: What about the “glucose tolerance (OGTT)” value ([2]; HFD-fed outbred Swiss Webster mice, 0.1 mgml^−1 pure saccharin, 5 weeks, p<0.03) of the same molecule?
A: The value was “significant glucose intolerance”.

Q: And the “decrease in Candidatus Arthromitus” value [3, 4]?
A: Its value is roughly 10 fold.

Q: And the “relative increase of Bacteroides fragilis” value [3, 4]?
A: The value was 20 fold.

Q: And the “relative increase of Weissella ciboria” value [3, 4]?
A: The value was 20 fold.

Q: What about the “Saccharin Enriched D6: p_Bacteroidetes” value [3, 5] of the same molecule?
A: Its value is 0.611.

Q: What about the “Saccharin Enriched D6: p_Firmicutes” value [3, 5] of the same molecule?
A: The value was 0.3649.

Q: And the “Saccharin Enriched D6: p_Tenericutes” value [3, 5]?
A: The value was 0.02291.

Q: And the “Saccharin Enriched D6: p_Bacteroidetes; c_Bacteroidia” value ([3]; GF recipients, day 6, level 3)?
A: Its value is 0.6108.

Q: And the “Saccharin Enriched D6: p_Firmicutes; c_Bacilli” value ([3]; GF recipients, day 6, level 3)?
A: The value was 0.3122.

Q: What about the “Saccharin Enriched D6: p_Firmicutes; c_Clostridia” value ([3]; GF recipients, day 6, level 3) of the same molecule?
A: The value was 0.05266.

Q: And the “Saccharin Enriched D6: p_Proteobacteria; c_Gammaproteobacteria” value ([3]; GF recipients, day 6, level 3)?
A: The value was 0.0001278.

Q: And the “Saccharin Enriched D6: p_Tenericutes; c_Mollicutes” value ([3]; GF recipients, day 6, level 3)?
A: Its value is 0.02291.

Q: What about the “Saccharin Enriched D6: c_Bacilli; o_Lactobacillales” value ([3]; GF recipients, day 6, level 4) of the same molecule?
A: Its value is 0.3116.

Q: What about the “Saccharin Enriched D6: c_Bacteroidia; o_Bacteroidales” value ([3]; GF recipients, day 6, level 4) of the same molecule?
A: The value was 0.6108.

Q: And the “Saccharin Enriched D6: c_Clostridia; o_Clostridiales” value ([3]; GF recipients, day 6, level 4)?
A: Its value is 0.05266.

Q: And the “Saccharin Enriched D6: c_Gammaproteobacteria; o_Enterobacteriales” value ([3]; GF recipients, day 6, level 4)?
A: The value was 0.0001248.

Q: What about the “Saccharin Enriched D6: c_Mollicutes; o_Anaeroplasmatales” value ([3]; GF recipients, day 6, level 4) of the same molecule?
A: The value was 0.02291.

Q: What about the “Saccharin Enriched D6: o_Anaeroplasmatales; f_Anaeroplasmataceae” value ([3]; GF recipients, day 6, level 5) of the same molecule?
A: The value was 0.02291.

Q: What about the “Saccharin Enriched D6: o_Bacteroidales; f_Bacteroidaceae” value ([3]; GF recipients, day 6, level 5) of the same molecule?
A: Its value is 0.467.

Q: And the “Saccharin Enriched D6: o_Bacteroidales; f_Porphyromonadaceae” value ([3]; GF recipients, day 6, level 5)?
A: Its value is 0.1379.

Q: What about the “Saccharin Enriched D6: o_Bacteroidales; f_S24-7” value ([3]; GF recipients, day 6, level 5) of the same molecule?
A: Its value is 7.066E−05.

Q: What about the “Saccharin Enriched D6: o_Bacteroidales; f_[Odoribacteraceae]” value ([3]; GF recipients, day 6, level 5) of the same molecule?
A: Its value is 0.004319.

Q: And the “Saccharin Enriched D6: o_Clostridiales; f_” value ([3]; GF recipients, day 6, level 5)?
A: Its value is 0.04275.

Q: And the “Saccharin Enriched D6: o_Clostridiales; f_Clostridiaceae” value ([3]; GF recipients, day 6, level 5)?
A: The value was 0.005131.

Q: What about the “Saccharin Enriched D6: o_Clostridiales; f_Dehalobacteriaceae” value ([3]; GF recipients, day 6, level 5) of the same molecule?
A: The value was 0.0008389.

Q: What about the “Saccharin Enriched D6: o_Clostridiales; f_Ruminococcaceae” value ([3]; GF recipients, day 6, level 5) of the same molecule?
A: The value was 0.003365.

Q: And the “Saccharin Enriched D6: o_Enterobacteriales; f_Enterobacteriaceae” value ([3]; GF recipients, day 6, level 5)?
A: The value was 0.0001248.

Q: What about the “Saccharin Enriched D6: o_Lactobacillales; f_Lactobacillaceae” value ([3]; GF recipients, day 6, level 5) of the same molecule?
A: The value was 0.3087.

Q: What about the “Saccharin Enriched D6: o_Lactobacillales; f_Streptococcaceae” value ([3]; GF recipients, day 6, level 5) of the same molecule?
A: Its value is 0.0009772.

Q: And the “Saccharin Enriched D6: f_Anaeroplasmataceae; g_Anaeroplasma” value ([3]; GF recipients, day 6, level 6)?
A: Its value is 0.02291.

Q: And the “Saccharin Enriched D6: f_Bacteroidaceae; g_Bacteroides” value ([3]; GF recipients, day 6, level 6)?
A: Its value is 0.467.

Q: What about the “Saccharin Enriched D6: f_Clostridiaceae; g_Candidatus Arthromitus” value ([3]; GF recipients, day 6, level 6) of the same molecule?
A: The value was 0.005047.

Q: What about the “Saccharin Enriched D6: f_Clostridiaceae; g_Clostridium” value ([3]; GF recipients, day 6, level 6) of the same molecule?
A: Its value is 4.209E−05.

Q: And the “Saccharin Enriched D6: f_Dehalobacteriaceae; g_Dehalobacterium” value ([3]; GF recipients, day 6, level 6)?
A: Its value is 0.0008389.

Q: And the “Saccharin Enriched D6: f_Enterobacteriaceae; g_” value ([3]; GF recipients, day 6, level 6)?
A: Its value is 0.0001248.

Q: And the “Saccharin Enriched D6: f_Lachnospiraceae; g_[Ruminococcus]” value ([3]; GF recipients, day 6, level 6)?
A: Its value is 7.818E−05.

Q: And the “Saccharin Enriched D6: f_Lactobacillaceae; g_Lactobacillus” value ([3]; GF recipients, day 6, level 6)?
A: The value was 0.3087.

Q: What about the “Saccharin Enriched D6: f_Porphyromonadaceae; g_Parabacteroides” value ([3]; GF recipients, day 6, level 6) of the same molecule?
A: Its value is 0.1379.

Q: What about the “Saccharin Enriched D6: f_Ruminococcaceae; g_” value ([3]; GF recipients, day 6, level 6) of the same molecule?
A: Its value is 0.003112.

Q: And the “Saccharin Enriched D6: f_S24-7; g_” value ([3]; GF recipients, day 6, level 6)?
A: The value was 7.066E−05.

Q: And the “Saccharin Enriched D6: f_Streptococcaceae; g_Lactococcus” value ([3]; GF recipients, day 6, level 6)?
A: Its value is 0.0008509.

Q: What about the “Saccharin Enriched D6: f_[Odoribacteraceae]; g_Odoribacter” value ([3]; GF recipients, day 6, level 6) of the same molecule?
A: The value was 0.004319.

Q: What about the “Saccharin Enriched D6: o_Clostridiales; f_; g_” value ([3]; GF recipients, day 6, level 6) of the same molecule?
A: Its value is 0.04275.
